Laboratory results as given in patent US9884818B2, “Sulphamoylpyrrolamide derivatives and the use thereof as medicaments for the treatment of hepatitis B” (Janssen Sciences Ireland UC, priority 2013, dated 2018).

Columns and labels:
[1] = Cytotoxicity in HepG2 cells, Resazurin viability assay; conditions: human, HepG2 cells, HepG2 4 days CC50 (μM), incubated for 4 days, Resazurin assay
HBV = experiment: Anti-HBV activity, HepG2.117 inducibly HBV producing cell line (Tet-off), intracellular HBV DNA by realtime PCR; type: cell-based; conditions: Hepatitis B virus, HepG2.117, 72 h, HepG2.117 cells, 3 days of treatment, intracellular HBV DNA; read-out: HepG2 117 EC50

SMILES	CC50 at 4 days [1] [µM]	EC50 (HBV) [nM]
C[C@@H](NS(=O)(=O)c1c(Cl)c(C(=O)Nc2ccc(F)c(C#N)c2)n(C)c1C1CC1)C(F)(F)F [Compound 302, 3-chloro-N-(3-cyano-4-fluoro-phenyl)-5-cyclopropyl-1-methyl-4-[[(1R)-2,2,2-trifluoro-1-methyl-ethyl]sulfamoyl]pyrrole-2-carboxamide]	> 25	30
Cc1c(S(=O)(=O)N[C@H](C)C(F)(F)F)c(F)c(C(=O)Nc2ccc(F)c(C#N)c2)n1C [Compound 299, N-(3-cyano-4-fluoro-phenyl)-3-fluoro-1,5-dimethyl-4-[[(1R)-2,2,2-trifluoro-1-methyl-ethyl]sulfamoyl]pyrrole-2-carboxamide]	> 25	9
Cc1cc(NC(=O)c2cc(S(=O)(=O)NC(C)(C)C(=O)O)cn2C)ccc1F [Compound 61, 2-[[5-[(4-fluoro-3-methyl-phenyl)carbamoyl]-1-methyl-pyrrol-3-yl]-sulfonylamino]-2-methyl-propanoic acid]	> 25	> 1000
C[C@@H](NS(=O)(=O)c1c(F)c(C(=O)Nc2ccc(F)c(C#N)c2F)n(C)c1Cl)C(F)(F)F [Compound 314, 5-chloro-N-(3-cyano-2,4-difluoro-phenyl)-3-fluoro-1-methyl-4-[[(1R)-2,2,2-trifluoro-1-methyl-ethyl]sulfamoyl]pyrrole-2-carboxamide]	> 25	7
C[C@@H](NS(=O)(=O)c1c(Cl)c(C(=O)Nc2ccc(F)c(C#N)c2)n(C)c1Br)C(F)(F)F [Compound 300, 5-bromo-3-chloro-N-(3-cyano-4-fluoro-phenyl)-1-methyl-4-[[(1R)-2,2,2-trifluoro-1-methyl-ethyl]sulfamoyl]pyrrole-2-carboxamide]	14.2	8
C[C@H](NS(=O)(=O)c1cn(C)c(C(=O)Nc2ccc(F)c(C#N)c2)c1F)C(C)(F)F [Compound 318, N-(3-cyano-4-fluoro-phenyl)-4-[[(1S)-2,2-difluoro-1-methyl-propyl]sulfamoyl]-3-fluoro-1-methyl-pyrrole-2-carboxamide]	> 25	19
Cc1cc(NC(=O)c2c(Br)c(S(=O)(=O)N[C@H](C)C(F)(F)F)cn2C)ccc1F [Compound 308, 3-bromo-N-(4-fluoro-3-methyl-phenyl)-1-methyl-4-[[(1R)-2,2,2-trifluoro-1-methyl-ethyl]sulfamoyl]pyrrole-2-carboxamide]	> 25	10
C[C@@H](NS(=O)(=O)c1cn(C)c(C(=O)Nc2ccc(F)cc2)c1F)C(F)(F)F [Compound 285, 3-fluoro-N-(4-fluorophenyl)-1-methyl-4-[[(1R)-2,2,2-trifluoro-1-methyl-ethyl]sulfamoyl]pyrrole-2-carboxamide]	> 25	7
Cn1cc(S(=O)(=O)NC2(C(F)(F)F)CCC2)c(F)c1C(=O)Nc1ccc(F)c(C#N)c1 [Compound 319, N-(3-cyano-4-fluoro-phenyl)-3-fluoro-1-methyl-4-[[1-(trifluoromethyl)cyclobutyl]sulfamoyl]pyrrole-2-carboxamide]	> 25	< 4
Cn1cc(S(=O)(=O)NC2CCCC2)c(Cl)c1C(=O)Nc1ccc(F)c(C#N)c1 [Compound 307, 3-chloro-N-(3-cyano-4-fluoro-phenyl)-4-(cyclopentylsulfamoyl)-1-methyl-pyrrole-2-carboxamide]	> 25	30
C[C@@H](NS(=O)(=O)c1c(F)c(C(=O)Nc2ccc(F)c(C#N)c2F)n(C)c1Br)C(F)(F)F [Compound 315, 5-bromo-N-(3-cyano-2,4-difluoro-phenyl)-3-fluoro-1-methyl-4-[[(1R)-2,2,2-trifluoro-1-methyl-ethyl]sulfamoyl]pyrrole-2-carboxamide]	> 25	7
